Measurements taken from US10604509B2, “Nrf2 regulators” (GlaxoSmithKline Intellectual Property Development Limited, priority 2015, dated 2020).
Where a name gives a salt, the structure may show the parent alone.

These molecules were tested on NQO1 specific enzyme activity in BEAS-2B cells (assay: BEAS-2B NQO1 MTT assay). Conditions: BEAS-2B cells, 48 hours with compound, MTT readout; read-out: EC50 of NQO1 specific activity induction.
Assay type: cell-based
Summary of the method: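 NQO1 specific activity, an NRF2 activation marker, read kinetically as absorbance change at 570 nm for 30 min after MTT cocktail addition to crude lysates of BEAS-2B cells exposed 48 h to compound. Three-parameter fit of Delta OD/min against log concentration gives EC50; lysate portion used for Cell Titer Glo.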
For `CCn1cc(CCC(c2ccc(C)c(CN3Cc4cnccc4OC(C)(C)C3)c2)C(C)C(=O)O)nn1` (single isomer, unassigned) [Example 228, 3-(3-((2,2-Dimethyl-2,3-dihydropyrido[3,4-f][1,4]oxazepin-4(5H)-yl)methyl)-4-methylphenyl)-5-(1-ethyl-1H-1,2,3-triazol-4-yl)-2-methylpentanoic acid], the EC50 was 100 to 1000 nM.

Same assay, conditions: BEAS-2B cells, 48 hours with compound, MTT readout; trifluoroacetic acid salt; read-out: EC50 of NQO1 specific activity induction
For `Cc1ccc(C(c2ccc3c(nnn3C)c2C)C(C)(C)C(=O)O)cc1Cn1ccnc1CN1CCCCCC1` (stereo not drawn) [Example 141, 3-(3-((2-(Azepan-1-ylmethyl)-1H-imidazol-1-yl)methyl)-4-methylphenyl)-3-(1,4-dimethyl-1H-benzo[d][1,2,3]triazol-5-yl)-2,2-dimethylpropanoic acid, trifluoroacetic acid salt], the EC50 was 1000 to 10000 nM.

Same assay, conditions: Homo sapiens, BEAS-2B, 48 h, BEAS-2B cells, 48 hours with compound, MTT readout; read-out: EC50 of NQO1 specific activity induction
`CC[C@@H]1CN(Cc2cc(C(CC(=O)O)c3ccc(F)cc3F)ccc2C)Cc2ccccc2O1` (stereo partly drawn) [Example 117, 3-(2,4-Difluorophenyl)-3-(3-(((R)-2-ethyl-2,3-dihydrobenzo[f][1,4]oxazepin-4(5H)-yl)methyl)-4-methylphenyl)propanoic Acid, Formic Acid Salt] was tested, and the EC50 was 1000 to 10000 nM. Molecule `Cc1ccc(C(c2ccc3c(nnn3C)c2C)C(C)(C)C(=O)O)cc1CN1Cc2cccnc2OC(C)(C)C1` (stereo not drawn) [Example 23, 3-(1,4-Dimethyl-1H-benzo[d][1,2,3]triazol-5-yl)-3-(3-((2,2-dimethyl-2,3-dihydropyrido[3,2-f][1,4]oxazepin-4(5H)-yl)methyl)-4-methylphenyl)-2,2-dimethylpropanoic Acid, Trifluoroacetic Acid] has an EC50 of 10 to 100 nM. `Cc1ccc([C@@H](CC(=O)O)c2ccc3c(nnn3C)c2C)cc1CN1Cc2ncccc2OC(C)(C)C1` [Example 169, (R)-3-(1,4-Dimethyl-1H-benzo[d][1,2,3]triazol-5-yl)-3-(3-((2,2-dimethyl-2,3-dihydropyrido[2,3-f][1,4]oxazepin-4(5H)-yl)methyl)-4-methylphenyl)propanoic acid, 0.5 Formic acid salt] showed an EC50 of 10 to 100 nM. `CC[C@@H]1CN(Cc2cc(C(c3ccc(F)cc3C)C(C)(C)C(=O)O)ccc2C)Cc2ccccc2O1` (stereo partly drawn) [Example 115, 3-(3-(((R)-2-ethyl-2,3-dihydrobenzo[f][1,4]oxazepin-4(5H)-yl)methyl)-4-methylphenyl)-3-(4-fluoro-2-methylphenyl)-2,2-dimethylpropanoic Acid, Formic Acid Salt] showed an EC50 of 1000 to 10000 nM. In the case of `CC[C@@H]1CN(Cc2cc([C@H](CC(=O)O)c3ccc4c(nnn4CC)c3Cl)ccc2C)Cc2ccccc2O1` [Example 56, (S)-3-(4-Chloro-1-ethyl-1H-benzo[d][1,2,3]triazol-5-yl)-3-(3-(((R)-2-ethyl-2,3-dihydrobenzo[f][1,4]oxazepin-4(5H)-yl)methyl)-4-methylphenyl)propanoic acid], the EC50 is reported as 10 to 100 nM. In the case of `Cc1ccc(C(c2ccc3c(nnn3C)c2C)C(C)(C)C(=O)O)cc1CN1CCCC(n2cccn2)C1` (stereo not drawn) [Example 162, 3-(3-((3-(1H-Pyrazol-1-yl)piperidin-1-yl)methyl)-4-methylphenyl)-3-(1,4-dimethyl-1H-benzo[d][1,2,3]triazol-5-yl)-2,2-dimethylpropanoic Acid], the EC50 is reported as 100 to 1000 nM. `CC[C@@H]1CN(Cc2cc([C@H](c3ccc4c(nnn4C)c3C)[C@H](C)C(=O)O)ccc2C)Cc2ccccc2O1` [Example 39, (2S,3R)-3-(1,4-Dimethyl-1H-benzo[d][1,2,3]triazol-5-yl)-3-(3-(((R)-2-ethyl-2,3-dihydrobenzo[f][1,4]oxazepin-4(5H)-yl)methyl)-4-methylphenyl)-2-methylpropanoic Acid] gave an EC50 of 10 to 100 nM. `CC[C@@H]1CN(Cc2cc([C@@H](CC(=O)O)c3ccc4c(nnn4C)c3C)ccc2C)Cc2cccc(F)c2O1` [Example 60, (R)-3-(1,4-Dimethyl-1H-benzo[d][1,2,3]triazol-5-yl)-3-(3-(((R)-2-ethyl-9-fluoro-2,3-dihydrobenzo[f][1,4]oxazepin-4(5H)-yl)methyl)-4-methylphenyl)propanoic acid, Sodium salt] gave an EC50 of 10 to 100 nM. In the case of `Cc1ccc(C(c2ccc3c(nnn3C)c2C)C(C)(C)C(=O)O)cc1Cn1ccnc1CC1CCOCC1` (stereo not drawn) [Example 145, 3-(1,4-Dimethyl-1H-benzo[d][1,2,3]triazol-5-yl)-2,2-dimethyl-3-(4-methyl-3-((2-((tetrahydro-2H-pyran-4-yl)methyl)-1H-imidazol-1-yl)methyl)phenyl) propanoic acid, trifluoroacetic acid salt], the EC50 is reported as 100 to 1000 nM. In the case of `Cc1ccc(C(CC(=O)O)c2ccc3c(nnn3C)c2C)cc1Cn1ccnc1CC1CCCCC1` (stereo not drawn) [Example 127, 3-(3-((2-(Cyclohexylmethyl)-1H-imidazol-1-yl)methyl)-4-methylphenyl)-3-(1,4-dimethyl1H-benzo[d][1,2,3]triazol-5-yl)propanoic Acid], the EC50 is reported as 10 to 100 nM. Work on `CC[C@@H]1CN(Cc2cc([C@H](CC(=O)O)c3ccc4c(nnn4CC)c3F)ccc2C)Cc2cccc(F)c2O1` [Example 52, (S)-3-(1-Ethyl-4-fluoro-1H-benzo[d][1,2,3]triazol-5-yl)-3-(3-(((R)-2-ethyl-9-fluoro-2,3-dihdyrobenzo[f][1,4]oxazepin-4(5H)-yl)methyl)-4-methylphenyl)propanoic acid, 0.5formic acid salt] yielded an EC50 of 1 to 10 nM. `Cc1ccc(C(CC(=O)O)c2ccc3c(nnn3C)c2C)cc1CN1Cc2ccccc2O[C@H](C)C1` (stereo partly drawn) [Example 94, 3-(1,4-Dimethyl-1H-benzo[d][1,2,3]triazol-5-yl)-3-(4-methyl-3-(((R)-2-methyl-2,3-dihydrobenzo[f][1,4]oxazepin-4(5H)-yl)methyl)phenyl)propanoic Acid, Formic Acid Salt] was tested, and the EC50 was 1 to 10 nM. For `CC[C@@H]1CN(Cc2cc(C(CC(=O)O)c3ccc4c(nnn4C)c3C)ccc2C)Cc2ccncc2O1` (stereo partly drawn) [Example 90, 3-(1,4-Dimethyl-1H-benzo[d][1,2,3]triazol-5-yl)-3-(3-(((R)-2-ethyl-2,3-dihydropyrido[4,3-f][1,4]oxazepin-4(5H)-yl)methyl)-4-methylphenyl)propanoic acid], the EC50 was 10 to 100 nM. For `Cc1ccc([C@@H](c2ccc3c(nnn3C)c2C)C(C)(C)C(=O)O)cc1CN1CCC[C@@H](n2cccn2)C1` [compound 184, (S)-3-(3-(((R)-3-(1H-Pyrazol-1-yl)piperidin-1-yl)methyl)-4-methylphenyl)-3-(1,4-dimethyl-1H-benzo[d][1,2,3]triazol-5-yl)-2,2-dimethylpropanoic acid], the EC50 was 100 to 1000 nM. With `CCOC(=O)C(C)(C)[C@@H](c1ccc(C)c(CN2Cc3cnccc3O[C@H](CC)C2)c1)c1ccc2c(nnn2C)c1C` [Example 257, (S)-ethyl 3-(1,4-dimethyl-1H-benzo[d][1,2,3]triazol-5-yl)-3-(3-(((R)-2-ethyl-2,3-dihydropyrido[3,4-f][1,4]oxazepin-4(5H)-yl)methyl)-4-methylphenyl)-2,2-dimethylpropanoate] the EC50 was 100 to 1000 nM. For `Cc1ccc(C(c2ccc3c(nnn3C)c2C)C2(C(=O)O)CC2)cc1CN1Cc2cnccc2OC(C)(C)C1` (stereo not drawn) [Example 211, 1-((1,4-Dimethyl-1H-benzo[d][1,2,3]triazol-5-yl)(3-((2,2-dimethyl-2,3-dihydropyrido[3,4-f][1,4]oxazepin-4(5H)-yl)methyl)-4-methylphenyl)methyl)cyclopropanecarboxylic acid, Trifluoroacetic Acid Salt], the EC50 was 10 to 100 nM. `CCC1c2cccn2CCN1Cc1cc(C(CC(=O)O)c2ccc3c(nnn3C)c2C)ccc1C` (stereo not drawn) [Example 19, 3-(1,4-dimethyl-1H-benzo[d][1,2,3]triazol-5-yl)-3-(3-((1-ethyl-3,4-dihdyropyrrolo[1,2-a]pyrazin-2(1H)-yl)methyl)-4-methylphenyl)propanoic acid, formic acid salt] was tested, and the EC50 was 1000 to 10000 nM. `Cc1ccc([C@@H](c2ccc3c(nnn3C)c2C)C(C)(C)C(=O)O)cc1CN1CCC[C@H](n2cccn2)C1` [Example 183, (S)-3-(3-(((S)-3-(1H-Pyrazol-1-yl)piperidin-1-yl)methyl)-4-methylphenyl)-3-(1,4-dimethyl-1H-benzo[d][1,2,3]triazol-5-yl)-2,2-dimethylpropanoic Acid] showed an EC50 of 10 to 100 nM. With `Cc1ccc(C(c2ccc3c(nnn3C)c2C)C(C)(C)C(=O)O)cc1Cn1ccnc1CN1CCOCC1` (stereo not drawn) [Example 142, 3-(1,4-Dimethyl-1H-benzo[d][1,2,3]triazol-5-yl)-2,2-dimethyl-3-(4-methyl-3-((2-(morpholinomethyl)-1H-imidazol-1-yl)methyl)phenyl) propanoic acid, trifluoroacetic acid salt] the EC50 was 100 to 1000 nM. In the case of `Cc1ccc2c(c1)OC(C)(C)CN(Cc1cc([C@@H](CC(=O)O)c3ccc4c(nnn4C)c3C)ccc1C)C2` [Example 179, (R)-3-(1,4-Dimethyl-1H-benzo[d][1,2,3]triazol-5-yl)-3-(4-methyl-3-((2,2,8-trimethyl-2,3-dihydrobenzo[f][1,4]oxazepin-4(5H)-yl)methyl)phenyl) propanoic acid], the EC50 is reported as 10 to 100 nM. Molecule `CCC1CCN(Cc2nccn2Cc2cc([C@H](c3ccc4c(nnn4C)c3C)C(C)(C)C(=O)O)ccc2Cl)CC1` [Example 238, (R)-3-(4-Chloro-3-((2-((4-ethylpiperidin-1-yl)methyl)-1H-imidazol-1-yl)methyl)phenyl)-3-(1,4-dimethyl-1H-benzo[d][1,2,3]triazol-5-yl)-2,2-dimethylpropanoic Acid] has an EC50 of 1 to 10 nM. Work on `Cc1c(C(CC(=O)O)c2ccc(F)c(CN3Cc4ccccc4O[C@@H](C)C3)c2)ccc2c1nnn2C` (stereo partly drawn) [Example 95, 3-(1,4-Dimethyl-1H-benzo[d][1,2,3]triazol-5-yl)-3-(4-fluoro-3-(((S)-2-methyl-2,3-dihydrobenzo[f][1,4]oxazepin-4(5H)-yl)methyl)phenyl)propanoic Acid, Formic Acid Salt] yielded an EC50 of 100 to 1000 nM.
